Experimental data from patent US11492413B2, “Switchable antibody conjugate” (Temple University—Of The Commonwealth System of Higher …, priority 2017, dated 2022).
Where two headings read alike, the source gives them in different places. Non-standard residues stand in square brackets, D forms with d. Residues, ends and D or L forms follow the SMILES beside them. Dolaproine = CO[C@@H]([C@@H]1CCCN1)[C@@H](C)C(=O)O; Dil = CC[C@H](C)[C@H](NC)[C@@H](CC(=O)O)OC; NMeV = CN[C@H](C(=O)O)C(C)C

Key:
[1] = system: CD19-positive Burkitt's lymphoma cell line Ramos; assay: In vitro cytotoxicity assay (CellTiter Glo) on Ramos; format: cell-based; settings: 72 hour incubation; mixtures αGCN4-Fab-MMAF:GCN4 fusion at molar ratio 2:1
Experimental: (§1) SK-BR-3 cell line (ATCC) was cultured and assayed in DMEM (Cellgro) supplemented with 10% (vol/vol) FBS, 100 IU/mL penicillin, and 100 μg/mL streptomycin. Ramos cell line (ATCC) was cultured and assayed in RPMI-1640 media mixed with the same supplements as described above. For cytotoxicity assay, SK-BR-3 cancer cells were plated in flat-bottom 96 well plates at 1000 cells, 90 μL fresh cell media/well, and were incubated overnight at 37° C., 5% CO2. The MMAF compound and protein samples were filtered (0.22 μm, EMD Millipore), serially diluted in PBS buffer as 10× stock solutions, and added in triplicate to cancer cells (10 μL/well). To prevent evaporation, the edges of the plates were filled with 200 μL of bank media. The plates were then incubated at 37° C., 5% CO2 for 72 hours, after which the ATP content of each well was measured by CellTiter Glo (Promega). The luminescence signals were detected on a Synergy H1 plate reader (BioTek). The viability of the cells treated with PBS buffer was used as a control, the signal of which was normalized as 100%. Ramos cancer cells were plated in flat-bottom 96 well plates at 10000 cells/well, and were directly treated with protein samples and MMAF control compound. The rest of the assay procedure was the same as described above.

[2] = system: Her2-positive breast cancer cell line SK-BR-3; assay: In vitro cytotoxicity assay (CellTiter Glo) on SK-BR-3; format: cell-based
Experimental: as §1, with “The plates were then incubated at 37° C., 5% CO2 for 72 hours, after which the ATP content of each well was measured by CellTiter Glo (Promega).” left out

## CC[C@H](C)[C@@H]([C@@H](CC(=O)N1CCC[C@H]1[C@H](OC)[C@@H](C)C(=O)N[C@@H](Cc1ccccc1)C(=O)O)OC)N(C)C(=O)[C@@H](NC(=O)[C@@H](NC)C(C)C)C(C)C [MMAF, monomethyl auristatin F] (H-[NMeV]V[Dil][Dolaproine]F-OH)
[1]
  EC50: 89 ± 37 nM
[2]; 72 hour incubation, mixtures αGCN4-Fab-MMAF:GCN4 fusion at molar ratio 2:1, read-out: EC50 (nM) on SK-BR-3
  EC50: 50 ± 39 nM
[2]; range over Ramos and SK-BR-3, 72 hour incubation, read-out: EC50s, medium cytotoxicity of positive control
  EC50: 50 to 89 nM
